Calls of active or inactive are those of the source.
Key:
[1] = target: Voltage-dependent T-type calcium channel subunit alpha-1H (Homo sapiens, UniProt O95180); test: human CACNA1H calcium influx blockade – cell-based, synthetic library set 1, calcium flux (AID 493022); type: functional
[2] = target: T1, Tyrosine-protein phosphatase non-receptor type 7 (Homo sapiens, UniProt P35236); test: inhibition of hematopoietic tyrosine phosphatase HePTP – biochemical, set 2, SAR follow-up (AID 449736); type: functional
T1 sequence (P35236 whole entry): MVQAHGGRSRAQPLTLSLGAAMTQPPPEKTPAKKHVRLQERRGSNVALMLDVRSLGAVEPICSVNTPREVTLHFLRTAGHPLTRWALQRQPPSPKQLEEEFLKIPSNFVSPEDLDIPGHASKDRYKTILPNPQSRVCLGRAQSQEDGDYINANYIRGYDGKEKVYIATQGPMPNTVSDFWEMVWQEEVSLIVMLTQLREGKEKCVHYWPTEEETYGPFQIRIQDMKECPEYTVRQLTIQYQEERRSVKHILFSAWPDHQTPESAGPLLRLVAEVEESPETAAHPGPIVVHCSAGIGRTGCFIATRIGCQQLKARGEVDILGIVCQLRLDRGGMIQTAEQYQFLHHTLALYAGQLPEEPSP

[3] = target: T2, Dual specificity protein phosphatase 6 (Rattus norvegicus, UniProt Q64346); type: functional;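 also: confirmatory in vitro dose-response testing of MKP-3 inhibition; recombinant His-tagged MKP-3 made in E. coli BL21 with OMFP substrate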
T2 sequence (Q64346 whole entry): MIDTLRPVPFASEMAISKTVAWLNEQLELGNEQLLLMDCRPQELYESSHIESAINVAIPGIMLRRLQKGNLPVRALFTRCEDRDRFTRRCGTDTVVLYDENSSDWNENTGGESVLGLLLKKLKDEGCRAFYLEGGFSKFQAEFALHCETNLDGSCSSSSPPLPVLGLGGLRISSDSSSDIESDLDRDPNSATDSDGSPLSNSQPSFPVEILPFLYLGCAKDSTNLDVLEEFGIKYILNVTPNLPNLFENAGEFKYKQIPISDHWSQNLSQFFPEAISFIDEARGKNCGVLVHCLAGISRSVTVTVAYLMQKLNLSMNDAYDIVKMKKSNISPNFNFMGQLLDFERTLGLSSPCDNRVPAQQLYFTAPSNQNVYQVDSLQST

[4] = target: T3, Tyrosine-protein phosphatase non-receptor type 22 (Homo sapiens, UniProt Q9Y2R2); test: inhibition of lymphoid tyrosine phosphatase LYP – biochemical, pCAP fluorogenic substrate, fluorescence, set 3, SAR follow-up (AID 449727); type: functional
T3 sequence (Q9Y2R2 whole entry): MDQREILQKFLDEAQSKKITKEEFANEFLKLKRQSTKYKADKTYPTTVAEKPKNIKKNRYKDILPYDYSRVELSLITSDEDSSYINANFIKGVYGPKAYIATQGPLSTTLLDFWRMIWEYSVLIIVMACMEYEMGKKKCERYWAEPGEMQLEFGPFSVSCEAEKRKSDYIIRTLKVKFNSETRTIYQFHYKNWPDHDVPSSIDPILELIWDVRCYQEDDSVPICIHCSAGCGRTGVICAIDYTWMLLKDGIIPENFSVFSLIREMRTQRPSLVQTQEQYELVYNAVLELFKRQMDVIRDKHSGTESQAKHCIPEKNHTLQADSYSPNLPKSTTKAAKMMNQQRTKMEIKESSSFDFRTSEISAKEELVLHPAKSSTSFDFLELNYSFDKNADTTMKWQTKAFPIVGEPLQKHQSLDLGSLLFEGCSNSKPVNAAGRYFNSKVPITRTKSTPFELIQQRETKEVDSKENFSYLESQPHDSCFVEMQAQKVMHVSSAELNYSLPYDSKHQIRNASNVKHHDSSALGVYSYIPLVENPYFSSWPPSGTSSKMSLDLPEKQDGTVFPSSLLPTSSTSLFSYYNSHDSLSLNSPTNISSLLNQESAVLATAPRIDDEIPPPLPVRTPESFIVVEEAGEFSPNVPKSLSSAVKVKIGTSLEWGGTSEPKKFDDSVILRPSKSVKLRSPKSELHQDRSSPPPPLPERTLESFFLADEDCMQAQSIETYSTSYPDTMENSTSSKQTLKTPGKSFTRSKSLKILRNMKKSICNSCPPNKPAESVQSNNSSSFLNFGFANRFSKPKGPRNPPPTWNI

[5] = target: Dual specificity protein phosphatase 3 (Homo sapiens, UniProt P51452); test: SAR VHR1 Fluorescent Assay for In Vitro dose response studies Set 2. [Related pubchem assays (depositor defined):AID1654, AID1661, AID1878]; type: functional
[6] = target: Tyrosine-protein phosphatase non-receptor type 12 (Homo sapiens, UniProt Q05209); test: SAR Selectivity Analysis of small molecule inhibitors of PEST using pCAP in a fluorescence assay. [Related pubchem assays (depositor defined):AID1779, AID1784, AID2135]; type: functional
[7] = target: T1, Tyrosine-protein phosphatase non-receptor type 7; test: redox-active compounds inhibiting HePTP phosphatase – biochemical, fluorescence, mechanism study (AID 2068); type: functional
[8] = target: T3, Tyrosine-protein phosphatase non-receptor type 22; test: SAR LYP1 Fluorescent Assay using OMFP substrate for In Vitro dose response studies - Set 3. [Related pubchem assays (depositor defined):AID1779, AID1784, AID2140, AID2686]; type: functional
Troponin, cardiac muscle = Troponin, cardiac muscle (Homo sapiens, UniProt P19429+P45379+P63316); test: Fluorescence-based biochemical high throughput dose response assay for activators of the calcium sensitivity of cardiac Regulated Thin Filaments (RTF). [Related pubchem assays (depositor defined):AID493008, AID493018, AID504382, AID504383]; type: protein-complex assay
[9] = target: T4, Endoribonuclease toxin MazF (Escherichia coli K-12, UniProt P0AE70); test: substrate-only fluorescence increase artefacts – biochemical, single-stranded RNase substrate, counter-screen for MazEF activator project, dose response (AID 588502); type: functional
T4 sequence (P0AE70 whole entry): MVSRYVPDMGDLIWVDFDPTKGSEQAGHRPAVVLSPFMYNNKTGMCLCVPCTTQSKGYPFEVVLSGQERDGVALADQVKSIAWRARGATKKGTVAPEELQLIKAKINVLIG

[10] = target: T4, Endoribonuclease toxin MazF; test: activation of MazEF endoribonuclease cleavage – biochemical, fluorescence, single-stranded RNA substrate, uHTS hits, dose response (AID 588481); type: functional
Hexokinase = Hexokinase (Trypanosoma brucei, UniProt Q38C41); test: Confirmation assay for inhibitors of Trypanosoma brucei hexokinase 1-Analogue-first series. [Related pubchem assays (depositor defined):AID1430, AID1632, AID2516, AID2560, AID2579, AID2600, AID449725, AID492951]; type: functional
HEK293 [11] = test: cells; type: functional, cell-based; conditions: Homo sapiens
HEK293 [12] = test: NOD2 signaling inhibitors in MDP-stimulated cells, cell-based, uHTS, luminescence (AID 2001); type: functional; conditions: Homo sapiens
HEK293 [13] = test: cells; type: functional, cell-based; conditions: Homo sapiens; remark: listed apart in the source
[14] = target: Dual specificity tyrosine-phosphorylation-regulated kinase 1A (Rattus norvegicus, UniProt Q63470); type: biochemical, Homo sapiens
HEK293 [15] = test: inhibition of NOD1-driven NF-kB reporter – cell-based, luminescence, uHTS, primary screen (AID 1578); type: functional; conditions: Homo sapiens
HEK293 [16] = test: cells; type: functional, cell-based; conditions: Homo sapiens; remark: listed apart in the source
[17] = target: Nucleotide-binding oligomerization domain-containing protein 2 (Homo sapiens, UniProt Q9HC29); test: inhibition of NOD2-driven NF-kB reporter – cell-based, luminescence, uHTS, HEK293 (AID 1566); type: functional
[18] = target: Alkaline phosphatase, placental type (Homo sapiens, UniProt P05187); test: human placental alkaline phosphatase inhibition – biochemical, luminescence, confirmation (AID 1512); type: functional
[19] = target: T5, Alkaline phosphatase, tissue-nonspecific isozyme (Homo sapiens, UniProt P05186); test: potency against alkaline phosphatase TNAP – biochemical, luminescent, dose response, SAR follow-up (AID 1056)
T5 sequence (P05186 whole entry): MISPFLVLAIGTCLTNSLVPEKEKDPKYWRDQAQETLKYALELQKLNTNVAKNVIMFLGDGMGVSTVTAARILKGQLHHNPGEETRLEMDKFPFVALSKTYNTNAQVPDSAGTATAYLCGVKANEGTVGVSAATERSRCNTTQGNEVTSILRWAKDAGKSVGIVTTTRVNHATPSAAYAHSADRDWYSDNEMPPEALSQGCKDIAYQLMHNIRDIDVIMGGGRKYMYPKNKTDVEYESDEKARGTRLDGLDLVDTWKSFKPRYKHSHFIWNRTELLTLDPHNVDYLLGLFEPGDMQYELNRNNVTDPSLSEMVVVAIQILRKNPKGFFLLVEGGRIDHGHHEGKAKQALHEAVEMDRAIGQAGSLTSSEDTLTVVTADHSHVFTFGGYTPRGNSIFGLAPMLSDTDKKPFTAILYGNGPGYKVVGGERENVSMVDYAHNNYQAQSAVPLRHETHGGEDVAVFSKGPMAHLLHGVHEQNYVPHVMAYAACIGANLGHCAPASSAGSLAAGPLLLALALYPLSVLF

Coagulation factor XII = target: T6, Coagulation factor XII (Homo sapiens, UniProt P00748); test: activated coagulation factor XII inhibitor potency, concentration-effect curve, cell-free (AID 716); type: functional
T6 sequence (P00748 whole entry): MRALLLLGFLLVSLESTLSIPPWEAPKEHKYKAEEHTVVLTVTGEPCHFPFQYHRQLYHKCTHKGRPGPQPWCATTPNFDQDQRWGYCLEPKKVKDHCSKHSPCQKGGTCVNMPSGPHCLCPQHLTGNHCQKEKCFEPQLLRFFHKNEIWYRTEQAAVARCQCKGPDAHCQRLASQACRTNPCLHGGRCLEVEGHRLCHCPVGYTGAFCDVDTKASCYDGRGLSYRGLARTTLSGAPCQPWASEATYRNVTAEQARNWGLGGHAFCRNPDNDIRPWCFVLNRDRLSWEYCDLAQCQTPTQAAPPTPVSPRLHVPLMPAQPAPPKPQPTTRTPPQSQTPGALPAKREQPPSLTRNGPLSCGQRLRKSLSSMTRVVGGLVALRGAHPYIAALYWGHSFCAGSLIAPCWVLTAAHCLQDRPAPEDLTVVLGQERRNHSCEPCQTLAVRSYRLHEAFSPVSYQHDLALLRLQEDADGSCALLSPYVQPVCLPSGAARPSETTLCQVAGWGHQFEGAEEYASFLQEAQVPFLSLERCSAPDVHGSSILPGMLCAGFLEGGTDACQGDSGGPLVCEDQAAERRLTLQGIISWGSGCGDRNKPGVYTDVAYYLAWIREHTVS

[20] = target: T7, Type-1 angiotensin II receptor (Homo sapiens, UniProt P30556); test: agonist activity at AGTR1 – cell-based, uHTS hits, selectivity assay for APJ receptor agonist project, dose response (AID 488865); type: functional;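 also: beta-arrestin recruitment to AT1 measured by enzyme fragment complementation luminescence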
T7 sequence (P30556 whole entry): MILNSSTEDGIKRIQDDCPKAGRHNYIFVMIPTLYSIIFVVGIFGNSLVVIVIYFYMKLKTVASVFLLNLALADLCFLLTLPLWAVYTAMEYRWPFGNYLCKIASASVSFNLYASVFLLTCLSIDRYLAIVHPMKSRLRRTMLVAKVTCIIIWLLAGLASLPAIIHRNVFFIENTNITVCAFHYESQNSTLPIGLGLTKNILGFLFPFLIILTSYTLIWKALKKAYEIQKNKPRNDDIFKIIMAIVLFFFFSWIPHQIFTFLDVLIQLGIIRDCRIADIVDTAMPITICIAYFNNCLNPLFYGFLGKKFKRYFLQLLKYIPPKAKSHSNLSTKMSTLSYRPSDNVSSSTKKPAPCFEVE

[21] = target: E3 ubiquitin-protein ligase Mdm2/Protein Mdm4 (Homo sapiens, UniProt O15151+Q00987); test: disruption of Mdm2/MdmX protein binding – luminescence detection, dose response (AID 504593); type: functional
Vero [22] = test: cells; type: functional; conditions: Chlorocebus sabaeus
[23] = Luminescence Cell-Based Dose Retest to Confirm Inhibitors of Cancer Stem Cells. [Related pubchem assays (depositor defined):AID2717, AID2721]; type: functional; conditions: Homo sapiens
Vero [24] = test: cells; type: functional, cell-based; conditions: Chlorocebus sabaeus

SMILES: CC(Oc1ccccc1)C(=O)Nc1nnc(-c2ccc(F)c(F)c2)o1 (configuration not stated)
- EC50 [1]: 10 µM (active)

SMILES: CCOc1cc(/C=C2/S/C(=N/c3ccc4ccccc4c3)NC2=O)cc(Cl)c1OCC(=O)O
- IC50 [2]: 0.466 µM (active)
- IC50 [3]: 26.5 µM (active)
- IC50 [4]: 12.3 µM (active)
- IC50 [5]: 0.48 µM (active)
- IC50 [6]: 4.76 µM (active)
- IC50 [7]: 0.373 µM (active)
- IC50 [8]: 15.6 µM (active)

SMILES: O=[N+]([O-])c1ccc(NN=Cc2cccc3ccccc23)nc1
- EC50 (Troponin, cardiac muscle): 26.6 µM (inactive)
- EC50 [9]: 45.4 µM (inactive)
- EC50 [10]: > 99 µM (inactive)

SMILES: COc1ccc(Nc2cc(Cl)ccc2C(=O)O)cc1
- IC50 (Hexokinase): > 25 µM (inactive)

SMILES: Clc1c(Cl)c(Cl)c2[nH]nnc2c1Cl
- IC50 (HEK293 [11]): > 20 µM (inactive)
- IC50 (HEK293 [12]): 7.94 µM (active)
- IC50 (HEK293 [13]): 13.9 µM (active)
- AC50 [14]: 5.99 µM (active)
- EC50 (HEK293 [15]): 2.24 µM (active)
- IC50 (HEK293 [16]): > 20 µM (inactive)
- EC50 [17]: 3.2 µM (active)

SMILES: C=CCn1c(SCC(=O)c2ccc(O)c(O)c2)nnc1-c1ccc(Cl)cc1
- IC50 [18]: 11.8 µM (active)
- IC50 [19]: > 100 µM (inactive)

SMILES: CCOC(=O)c1nnn(-c2nonc2N)c1CNc1ccc(C)c(Br)c1
- IC50 (Coagulation factor XII): > 50 µM (inactive)

SMILES: C=CCSc1nc(=O)c(CC)c(O)n1C(C)CC (configuration not stated)
- EC50 [20]: > 100 µM (inactive)

SMILES: O=C(/C=C/c1c(F)cccc1Cl)c1ccc(O)cc1
- IC50 [21]: 5.74 µM (active)
- CC50 (Vero [22]): 19.9 µM (active)
- AC50 [23]: 6.85 µM (active)
- IC50 (Vero [24]): 23.6 µM (active)
